According to publication PMC9851200, “Multiparameter phenotypic screening for endogenous TFEB and TFE3 translocation identifies novel chemical series modulating lysosome function” (Autophagy, 2022):

What was measured:
[1] = test system: endogenous TFEB; test: TFEB nuclear translocation, immunocytochemistry high-content imaging; format: cell-based
[2] = test system: endogenous TFE3; test: TFE3 nuclear translocation, immunocytochemistry high-content imaging; format: cell-based
[3] = test system: SH-SY5Y cells; test: Chemotype enrichment analysis of PKIS2 primary screen hit categories
[4] = test system: SH-SY5Y cells; note: reference of the scale not given here
[5] = test system: SH-SY5Y cells; conditions: human, SH-SY5Y cells, 24 h, 1 µM; note: reference of the scale not given here
[6] = test system: SH-SY5Y cells; conditions: human, SH-SY5Y cells, 24 h, 1 µM; remark: listed apart in the source; note: reference of the scale not given here

Row | Compound | TFEB % [1] [%] | TFE3 % [2] [%] | Outcome [3] | DQ Intensity [4] | DQ Spot [4] | AK [5] | Nuclear Count [6]
1 | O=C(Nc1n[nH]c2nc(-c3ccco3)c(Br)cc12)C1CCN(Cc2ccccc2)C1 (stereo not shown) [SB-742034] | 3.21 | 21.82 | TFE3 | 103.44 | 100.36 | 87.38 | 103.32
2 | COc1cccc(C2=C(Nc3cccc(C(=O)O)c3)C(=O)NC2=O)c1 [UNC10225061A] | 7.42 | 19.97 | TFE3 | 83.20 | 110.64 | 91.51 | 71.42
3 | CN(C1=C(c2ccccc2)C(=O)NC1=O)c1ccccc1 [UNC10225087A] | 6.00 | 7.91 | TOXIC | 118.90 | 112.39 | 157.36 | 105.86
4 | O=C1NC(=O)C(N2CCc3ccccc32)=C1c1cccc(Cl)c1 [UNC10225137A] | 4.79 | 20.87 | TFE3 | 107.62 | 107.27 | 100.20 | 132.24
5 | O=C1NC(=O)C(N2CCc3ccccc32)=C1c1ccccc1Cl [UNC10225255A] | 3.84 | 11.28 | DQ Only | 155.35 | 121.27 | 83.08 | 86.30
6 | COc1ccc(C2=C(Nc3cccc(O)c3)C(=O)NC2=O)cc1 [UNC10225299A] | 8.50 | 15.17 | DQ Only | 174.21 | 115.16 | 102.75 | 77.10
7 | Fc1ccc(-c2ncn(C3CCNCC3)c2-c2ccnc(Oc3ccc(-c4ccccc4)cc3)n2)cc1 [UNC10225377A] | 13.41 | 24.21 | TFE3 + DQ Int | 170.99 | 76.67 | 108.76 | 106.99
